Results: BigSolDB 2.1

NCC(CC(=O)O)c1ccc(Cl)cc1 (configuration not stated)
solubility (mole fraction)
Conditions | 273.15 K | 278.15 K | 283.15 K | 288.15 K | 293.15 K | 298.15 K | 303.15 K | 308.15 K | 313.15 K | 318.15 K
in 1,4-dioxane | – | – | – | 0.000519 | 0.000568 | 0.000632 | 0.000704 | 0.000788 | 0.000888 | 0.000996
in 2-butanone | 0.000439 | 0.000475 | 0.000522 | 0.000579 | 0.000639 | 0.000703 | 0.000792 | 0.0009 | 0.00101 | 0.00112
in DMAc | 0.0934 | 0.0945 | 0.0957 | 0.0969 | 0.0982 | 0.0995 | 0.101 | 0.102 | 0.104 | 0.105
in DMF | 0.0998 | 0.101 | 0.102 | 0.104 | 0.106 | 0.108 | 0.11 | 0.112 | 0.115 | 0.117
in acetone | 0.000228 | 0.000236 | 0.000246 | 0.000258 | 0.000273 | 0.000289 | 0.000305 | 0.000322 | 0.00034 | 0.000358
in ethanol | 1.95e-05 | 2.23e-05 | 2.58e-05 | 3e-05 | 3.4e-05 | 3.85e-05 | 4.33e-05 | 4.86e-05 | 5.39e-05 | 5.86e-05
in ethyl acetate | 0.00412 | 0.00419 | 0.00427 | 0.00436 | 0.00446 | 0.00456 | 0.00467 | 0.00476 | 0.00488 | 0.00499
in isopropanol | 3.16e-05 | 3.67e-05 | 4.17e-05 | 4.74e-05 | 5.35e-05 | 5.99e-05 | 6.67e-05 | 7.41e-05 | 8.21e-05 | 9.04e-05
in methanol | 0.000109 | 0.000116 | 0.000124 | 0.000133 | 0.000143 | 0.000153 | 0.000162 | 0.000173 | 0.000186 | 0.000198
in n-butanol | 5.73e-05 | 6.12e-05 | 6.61e-05 | 7.11e-05 | 7.68e-05 | 8.34e-05 | 9.06e-05 | 9.72e-05 | 0.000104 | 0.000113
in n-propanol | 2.57e-05 | 3.01e-05 | 3.47e-05 | 4.03e-05 | 4.61e-05 | 5.35e-05 | 6.1e-05 | 6.85e-05 | 7.63e-05 | 8.77e-05
in toluene | 0.0054 | 0.00569 | 0.00601 | 0.00639 | 0.00673 | 0.00709 | 0.00749 | 0.0079 | 0.00831 | 0.00866
